Molecular target: Xanthine dehydrogenase/oxidase (Homo sapiens, UniProt P47989)
Test: Inhibition of xanthine oxidase by spectrophotometry

Chain of Xanthine dehydrogenase/oxidase (P47989 whole entry): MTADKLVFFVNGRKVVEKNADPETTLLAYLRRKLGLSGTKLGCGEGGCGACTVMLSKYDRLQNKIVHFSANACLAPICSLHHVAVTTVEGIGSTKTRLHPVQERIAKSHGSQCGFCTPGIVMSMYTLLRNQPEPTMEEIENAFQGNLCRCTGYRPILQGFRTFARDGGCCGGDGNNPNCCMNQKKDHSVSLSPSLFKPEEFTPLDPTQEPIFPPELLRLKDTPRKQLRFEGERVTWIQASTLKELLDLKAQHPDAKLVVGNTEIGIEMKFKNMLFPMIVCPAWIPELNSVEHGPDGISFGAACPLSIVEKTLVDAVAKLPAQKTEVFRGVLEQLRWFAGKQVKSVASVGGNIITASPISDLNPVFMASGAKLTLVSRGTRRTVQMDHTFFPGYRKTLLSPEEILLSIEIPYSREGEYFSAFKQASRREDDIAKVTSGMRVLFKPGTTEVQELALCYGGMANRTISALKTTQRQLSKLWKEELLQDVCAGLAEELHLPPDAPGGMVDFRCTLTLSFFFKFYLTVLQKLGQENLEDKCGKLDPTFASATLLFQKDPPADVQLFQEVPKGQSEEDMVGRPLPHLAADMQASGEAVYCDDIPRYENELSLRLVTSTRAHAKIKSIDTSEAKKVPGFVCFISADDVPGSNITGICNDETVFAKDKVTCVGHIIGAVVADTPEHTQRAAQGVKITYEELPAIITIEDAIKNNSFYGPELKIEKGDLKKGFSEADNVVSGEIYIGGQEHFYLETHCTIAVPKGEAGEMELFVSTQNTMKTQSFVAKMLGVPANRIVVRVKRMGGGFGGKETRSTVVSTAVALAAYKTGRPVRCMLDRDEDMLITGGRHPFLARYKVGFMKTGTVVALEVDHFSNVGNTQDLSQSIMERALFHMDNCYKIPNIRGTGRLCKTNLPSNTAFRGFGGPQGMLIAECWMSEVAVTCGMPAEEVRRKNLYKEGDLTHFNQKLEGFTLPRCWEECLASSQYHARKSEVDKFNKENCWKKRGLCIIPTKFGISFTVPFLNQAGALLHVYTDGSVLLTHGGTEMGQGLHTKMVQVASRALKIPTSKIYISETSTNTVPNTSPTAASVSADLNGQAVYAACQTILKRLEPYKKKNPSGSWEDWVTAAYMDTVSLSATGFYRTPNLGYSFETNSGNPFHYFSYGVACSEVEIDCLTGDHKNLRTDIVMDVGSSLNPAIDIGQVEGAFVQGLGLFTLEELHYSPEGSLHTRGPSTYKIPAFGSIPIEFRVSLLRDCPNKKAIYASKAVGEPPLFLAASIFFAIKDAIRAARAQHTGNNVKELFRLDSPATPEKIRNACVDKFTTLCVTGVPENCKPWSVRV

IC50 [µM]	SMILES
36	COc1c(O)cc2oc(-c3ccc(O)c(O)c3)c(OC)c(=O)c2c1O [AXILLARIN]
36.5	COc1ccc(-c2oc3cc(O)c(OC)c(O)c3c(=O)c2OC)cc1 [SANTIN]

Reference: ChEMBL document CHEMBL1144076, “New guaianolides and xanthine oxidase inhibitory flavonols from ajania fruticulosa” (J Nat Prod, 1999)
